In US20260356851A1, “TRICYCLIC COMPOUNDS AND USES THEREOF” (HUTCHMED LIMITED, priority 2023, published 2026):
Like-named read-outs stand apart in the source and are kept apart here.

Tests used:
Assay type in all cases: cell-based
[1] = target: T1, pERK1/2 (Thr202/Tyr204), NCI-1H358 (KRAS G12C) (Homo sapiens, UniProt P01116, G12C); experiment: Assay of intracellular pERK1/2 (Thr202/Tyr204) phosphorylation in NCI-H358 cells (KRAS G12C)
T1 construct: pERK1/2 HTRF read-out
In short: (§1)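 HTRF detection of Thr202/Tyr204-phosphorylated ERK1/2 (665/615 nm ratio) in lysates from cells treated 2 days with serially 3-fold diluted compound.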

[2] = target: T2, pERK1/2 (Thr202/Tyr204), PANC-1 (KRAS G121D) (Homo sapiens, UniProt P01116, G12D); experiment: Assay of intracellular pERK1/2 (Thr202/Tyr204) phosphorylation in PANC-1 cells (KRAS G12D)
T2 construct: pERK1/2 HTRF read-out
T2 sequence (P01116 1-188 isoform P01116-2 G12D): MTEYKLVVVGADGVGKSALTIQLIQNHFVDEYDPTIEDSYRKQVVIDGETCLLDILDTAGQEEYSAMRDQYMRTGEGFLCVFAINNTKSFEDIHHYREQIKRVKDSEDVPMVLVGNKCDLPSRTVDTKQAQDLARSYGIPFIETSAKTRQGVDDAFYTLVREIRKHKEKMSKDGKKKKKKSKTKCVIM
In short: as §1

[3] = target: T3, pERK1/2 (Thr202/Tyr204), NCI-1H441 (KRAS G12V) (Homo sapiens, UniProt P01116, G12V); experiment: Assay of intracellular pERK1/2 (Thr202/Tyr204) phosphorylation in NCI-H441 cells (KRAS G12V)
T3 construct: pERK1/2 HTRF read-out
T3 sequence (P01116 1-188 isoform P01116-2 G12V): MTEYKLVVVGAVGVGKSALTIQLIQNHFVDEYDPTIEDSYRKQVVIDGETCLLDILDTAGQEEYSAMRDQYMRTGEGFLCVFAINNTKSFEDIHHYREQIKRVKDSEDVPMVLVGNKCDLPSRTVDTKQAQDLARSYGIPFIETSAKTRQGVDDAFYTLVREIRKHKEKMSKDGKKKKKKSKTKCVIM
In short: as §1

[4] = pERK1/2, 2 days, read-out: NCI-H358 (KRAS G12C) IC50
[5] = pERK1/2, 2 days, read-out: PANC-1 (KRAS G12D) IC50
[6] = pERK1/2, 2 days, read-out: NCI-H441 (KRAS G12V) IC50

T1 sequence (P01116 1-188 isoform P01116-2 G12C): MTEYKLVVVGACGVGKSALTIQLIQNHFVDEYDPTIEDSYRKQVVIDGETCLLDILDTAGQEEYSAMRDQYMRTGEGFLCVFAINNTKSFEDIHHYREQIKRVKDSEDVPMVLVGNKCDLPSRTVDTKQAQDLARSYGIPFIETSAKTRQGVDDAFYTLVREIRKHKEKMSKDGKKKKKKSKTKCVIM

Structure (SMILES) | IC50 [1, 4] [nM] | IC50 [2, 5] [nM] | IC50 [3, 6] [nM] | IC50 ([1]; read-out: NCI-H358 (KRAS G12C) IC50, pERK1/2, 2 days) [nM] | IC50 ([2]; read-out: PANC-1 (KRAS G12D) IC50, pERK1/2, 2 days) [nM] | IC50 ([3]; read-out: NCI-H441 (KRAS G12V) IC50, pERK1/2, 2 days) [nM]
Cc1cc(N)cc(-c2nc3c4c(nc(OCC56CCCN5CCC6)nc4c2F)N(C(C)c2cccnc2N)CCO3)c1C(F)(F)F (stereo not drawn) [Compound 87] | 3 | 36 | 6 | – | – | –
Cc1cc2cn[nH]c2cc1-c1nc2c3c(nc(OC[C@@]45CCCN4C[C@H](F)C5)nc3c1F)N(C(C)c1cccnc1N)[C@@H](C)CO2 (stereo partly drawn) [Compound 314] | > 100 | > 100 | > 100 | – | – | –
[2H]C1([2H])CC[C@@]2(C([2H])([2H])Oc3nc4c5c(nc(-c6cc(N)c(F)c(C)c6C(F)(F)F)c(F)c5n3)OCCN4C(C)c3cccnc3N)C[C@@]([2H])(F)CN12 (single isomer, unassigned; diastereomer 1) [Compound 178, (*)3-(1-(5-(5-amino-4-fluoro-3-methyl-2-(trifluoromethyl)phenyl)-4-fluoro-2-(((2R or 2S,7aS)-2-fluorotetrahydro-1H-pyrrolizin-7a(5H)-yl-2,5,5-d3)methoxy-d2)-8,9-dihydro-10H-7-oxa-1,3,6,10-tetraazacyclohepta[de]naphthalen-10-yl)ethyl)pyridin-2-amine (diastereomer 1)] | 0.1 | 1 | 0.4 | – | – | –
Cc1c(F)c(N)cc(-c2nc3c4c(nc(OC[C@@]56CCCN5CC5(CC5(F)F)C6)nc4c2F)N(C(C)c2cccnc2N)CCO3)c1C(F)(F)F (single isomer, unassigned) [Compound 228] | 0.2 | 0.8 | 0.5 | – | – | –
CC(c1cccnc1N)N1CCOc2nc(-c3ccc(F)c4sc(N)nc34)c(F)c3nc(OC[C@@H]4CCN4CC(F)F)nc1c23 (stereo partly drawn) [Compound 19] | 15 | > 1000 | 66 | – | – | –
CC(c1cccnc1N)N1CCOc2nc(-c3cc(N)c(F)cc3C(F)(F)F)c(F)c3nc(OC[C@@]45CCCN4C[C@H](F)C5)nc1c23 (single isomer, unassigned) [Compound 145, 3-((R or S)-1-(5-(5-amino-4-fluoro-2-(trifluoromethyl)phenyl)-4-fluoro-2-(((2R,7aS)-2-fluorotetrahydro-1H-pyrrolizin-7a(5H)-yl)methoxy)-8,9-dihydro-10H-7-oxa-1,3,6,10-tetraazacyclohepta[de]naphthalen-10-yl)ethyl)pyridin-2-amine] | 14 | > 100 | 51 | – | – | –
Cc1cc(N)cc(-c2nc3c4c(nc(N5CCC[C@H]5CO)nc4c2F)N(C(C)c2cccnc2N)CCO3)c1C(F)(F)F (single isomer, unassigned) [Compound 107] | 89 | > 100 | > 100 | – | – | –
CC(c1cccnc1N)N1CCOc2nc(-c3cc(O)cc(F)c3C3CC3)c(F)c3nc(OC[C@@H]4CCN4CC(F)F)nc1c23 (single isomer, unassigned) [Compound 23, 3-(10-((R or S)-1-(2-aminopyridin-3-yl)ethyl)-2-(((S)-1-(2,2-difluoroethyl)azetidin-2-yl)methoxy)-4-fluoro-9,10-dihydro-8H-7-oxa-1,3,6,10-tetraazacyclohepta[de]naphthalen-5-yl)-4-cyclopropyl-5-fluorophenol] | > 1000 | > 1000 | > 1000 | – | – | –
CC(c1cccnc1N)N1CCOc2nc(-c3cc(N)cc(F)c3C(F)(F)F)c(F)c3nc(OC[C@@H]4C[C@@H](F)CN4C)nc1c23 (single isomer, unassigned) [Compound 92, 3-((R or S)-1-(5-(5-amino-3-fluoro-2-(trifluoromethyl)phenyl)-4-fluoro-2-(((2S,4R)-4-fluoro-1-methylpyrrolidin-2-yl)methoxy)-8,9-dihydro-10H-7-oxa-1,3,6,10-tetraazacyclohepta[de]naphthalen-10-yl)ethyl)pyridin-2-amine] | 1 | 58 | 2 | – | – | –
[2H]C([2H])(Oc1nc2c3c(nc(-c4cc(N)cc(Cl)c4C(F)(F)F)c(F)c3n1)OCCN2C(C)c1cccnc1N)[C@@H]1CCC([2H])([2H])N1C([2H])([2H])[2H] (stereo partly drawn) [Compound 112] | 1 | 34 | 2 | – | – | –
CC(c1cccnc1N)N1CCOc2nc(-c3cc(N)cc(F)c3C(F)(F)F)c(F)c3nc(OC[C@@]45CCCN4C[C@H](F)C5)nc1c23 (single isomer, unassigned) [Compound 89, 3-((R or S)-1-(5-(5-amino-3-fluoro-2-(trifluoromethyl)phenyl)-4-fluoro-2-(((2R,7aS)-2-fluorotetrahydro-1H-pyrrolizin-7a(5H)-yl)methoxy)-8,9-dihydro-10H-7-oxa-1,3,6,10-tetraazacyclohepta[de]naphthalen-10-yl)ethyl)pyridin-2-amine] | 26 | > 100 | 43 | – | – | –
CC(c1cccnc1N)N1CCOc2nc(-c3cc(N)ccc3C(F)(F)F)c(F)c3nc(OC[C@@]45CCCN4C[C@H](F)C5)nc1c23 (single isomer, unassigned) [Compound 54, 3-((R or S)-1-(5-(5-amino-2-(trifluoromethyl)phenyl)-4-fluoro-2-(((2R,7aS)-2-fluorotetrahydro-1H-pyrrolizin-7a(5H)-yl)methoxy)-8,9-dihydro-10H-7-oxa-1,3,6,10-tetraazacyclohepta[de]naphthalen-10-yl)ethyl)pyridin-2-amine] | 0.7 | 21 | 2 | – | – | –
CC(c1cccnc1N)N1CCOc2nc(-c3cc(N)cc(Cl)c3C(F)(F)F)c(F)c3nc(OC[C@@]45CCCN4C[C@H](F)C5)nc1c23 (single isomer, unassigned) [Compound 71, 3-((R or S)-1-(5-(5-amino-3-chloro-2-(trifluoromethyl)phenyl)-4-fluoro-2-(((2R,7aS)-2-fluorotetrahydro-1H-pyrrolizin-7a(5H)-yl)methoxy)-8,9-dihydro-10H-7-oxa-1,3,6,10-tetraazacyclohepta[de]naphthalen-10-yl)ethyl)pyridin-2-amine] | 0.1 | 0.6 | 0.4 | – | – | –
[2H]C1([2H])Oc2nc(-c3cc(N)c(F)c(Cl)c3C(F)(F)F)c(F)c3nc(OC[C@@]45CCCN4C[C@H](F)C5)nc(c23)N(C(C)c2cccnc2N)C1([2H])[2H] (single isomer, unassigned) [Compound 207, 3-((R or S)-1-(5-(5-amino-3-chloro-4-fluoro-2-(trifluoromethyl)phenyl)-4-fluoro-2-(((2R,7aS)-2-fluorotetrahydro-1H-pyrrolizin-7a(5H)-yl)methoxy)-8,9-dihydro-10H-7-oxa-1,3,6,10-tetraazacyclohepta[de]naphthalen-10-yl-8,8,9,9-d4)ethyl)pyridin-2-amine] | 9 | > 100 | 33 | – | – | –
[2H]C1([2H])CC[C@@]2(C([2H])([2H])Oc3nc4c5c(nc(-c6cc(N)c(F)c(C)c6C(F)(F)F)c(F)c5n3)OCCN4C(C)c3cccnc3N)C[C@@H](F)CN12 (single isomer, unassigned) [Compound 124, 3-((R or S)-1-(5-(5-amino-4-fluoro-3-methyl-2-(trifluoromethyl)phenyl)-4-fluoro-2-(((2R,7aS)-2-fluorotetrahydro-1H-pyrrolizin-7a(5H)-yl-5,5-d2)methoxy-d2)-8,9-dihydro-10H-7-oxa-1,3,6,10-tetraazacyclohepta[de]naphthalen-10-yl)ethyl)pyridin-2-amine] | 0.1 | 1 | 0.3 | – | – | –
CCNC(=O)Oc1cc(Cl)c(C2CC2)c(-c2nc3c4c(nc(OC[C@@]56CCCN5C[C@H](F)C6)nc4c2F)N(C(C)c2cccnc2N)[C@@H](C)CO3)c1 (stereo partly drawn) [Compound 293, (*)3-((9S)-10-(1-(2-aminopyridin-3-yl)ethyl)-4-fluoro-2-(((2R,7aS)-2-fluorotetrahydro-1H-pyrrolizin-7a(5H)-yl)methoxy)-9-methyl-9,10-dihydro-8H-7-oxa-1,3,6,10-tetraazacyclohepta[de]naphthalen-5-yl)-5-chloro-4-cyclopropylphenyl ethylcarbamate acetate] | – | – | – | 1 | 0.5 | 1
Cc1c(F)c(N)cc(-c2nc3c4c(nc(OC[C@@]56CCCN5C[C@]5(CC5(F)F)C6)nc4c2F)N(C(C)c2cccnc2N)CCO3)c1C(F)(F)F (single isomer, unassigned; diastereomer 2) [Compound 239, (*)3-(1-(5-(5-amino-4-fluoro-3-methyl-2-(trifluoromethyl)phenyl)-2-(((1R or 1S,7a′S)-2,2-difluorodihydro-1′H,3′H-spiro[cyclopropane-1,2′-pyrrolizin]-7a′(5′H)-yl)methoxy)-4-fluoro-8,9-dihydro-10H-7-oxa-1,3,6,10-tetraazacyclohepta[de]naphthalen-10-yl)ethyl)pyridin-2-amine (diastereomer 2)] | 0.3 | 2 | 0.4 | – | – | –
Cc1c(C(F)(F)F)c(-c2nc3c4c(nc(OCC5(CN(C)C6CC6)CC5)nc4c2F)N(C(C)c2cccnc2N)[C@@H](C)CO3)c2cn[nH]c2c1F (stereo partly drawn) [Compound 395] | 1 | 21 | 4 | – | – | –
Cc1cc(O)cc(-c2nc3c4c(nc(OC[C@@]56CCCN5C[C@H](F)C6)nc4c2F)N(C(C)c2cccnc2N)CCO3)c1C1CC1 (stereo partly drawn) [Compound 159] | 0.6 | 15 | 1 | – | – | –
CC(c1cccnc1N)N1CCOc2nc(-c3cc(O)cc(Cl)c3C3CC3)c(F)c3nc(OC[C@@]45CCCN4C[C@H](F)C5)nc1c23 (stereo partly drawn) [Compound 4] | 1 | 10 | 2 | – | – | –
